Data as given in article PMC7434893 (British Journal of Cancer, 2020).
Where “and” joins values, the source holds several entries; their conditions need not be identical. Identical values can stand only once.

Tests used:
SNU-423 = experiment: 8-day growth inhibition; type: cell-based; conditions: HCC, SNU-423, 8-day assay
advanced solid tumours = experiment: Clinical outcome by 2X-121 DRP prediction; type: in vivo, human
From the text: Matching baseline transcriptome and growth inhibition data were available for 61 of the 74 cell lines, and were used to develop a DRP as previously described.[21],[22] Briefly, IC50 values in the 61 cell lines were correlated to gene-expression levels in the same cell lines; 172 genes with a Pearson correlation above 0.25 were retained as potential markers of sensitivity, while 242 genes with a Pearson correlation below −0.25 were retained as potential markers of resistance. The 414 genes were searched in PubMed for known associations to DNA damage response or Wnt/β-catenin pathways. The 111 pathway-associated genes are shown in Supplementary Table 2. Archival biopsies, in the form of formalin-fixed paraffin-embedded blocks and slides, were obtained from patients in the trial. Only those samples that yielded RNA of sufficient quantity and quality were evaluated for gene expression. The expression of the 414 genes in the 2X-121 DRP was analysed via a custom Affymetrix U133_Plus2 microarray according to the manufacturer’s instructions. The 2X-121 DRP was applied in a blinded manner following a prespecified analysis plan. The difference between the means of the genes that were positively correlated and those negatively correlated to response was used as a single prediction score for each patient, after normalisation to a range of 0–100.
As a first-in-human phase 1 clinical trial, no formal sample-size calculation or hypothesis testing was undertaken. Analysis of biomarker predictions was performed using a 1-sided Pearson correlation test and a 1-sided log-rank test for time-to-event data according to a prespecified analysis plan.

[1] = Food-effect pharmacokinetics, expansion cohort; type: in vivo, human; conditions: for Cmax / AUC(0-24h) / AUC(0-inf) / AUC(0-t) / Rac / t1/2 / tmax: 600 mg; for Cmax / AUC(0-24h) / AUC(0-inf) / AUC(0-t) / Rac / t1/2: mean (SD); for tmax: median (min, max)
Protocol: Fed patients were administered E7449 immediately after consuming a meal. Patients were then crossed over to the alternate food regimen on day 15.

[2] = Plasma and urine pharmacokinetics, dose-escalation cohorts; type: in vivo, human; conditions: for AUC(0-inf) / AUC(0–24) / Ae, amount of drug dose excreted in urine / CLR / Cav,ss / Cmax / fe, fraction of dose excreted in urine / t1/2 / AUC(0-t): mean (SD); for tmax: median (min, max)
Protocol: Blood samples were also collected immediately before the dose on day 7 of cycle 1, days 1 and 15 of cycle 2 and on day 1 of cycle 3, and beyond. All urine produced during the time intervals pre-dose, 0–2 h, 2–4 h, 4–10 h and 10–24 h following the single dose on day –2, and after multiple doses on cycle 1, day 15, was collected.

[3] = 6 patients predicted sensitive by 2X-121 DRP (cut-off 50)
[4] = 7 patients predicted not sensitive by 2X-121 DRP
[5] = 50 mg once daily, cycle 1 day 15, steady state
[6] = 100 mg once daily, cycle 1 day 15, steady state
[7] = 200 mg once daily, cycle 1 day 15, steady state

## O=c1[nH]nc2c3c(cccc13)N=C(CN1Cc3ccccc3C1)N2 [E7449]
SNU-423
  IC50: 19 µM
Advanced solid tumours; [3]
  Median overall survival: > 800 days
  Median time to progression: 296 days
Advanced solid tumours; [4]
  Median overall survival: 208 days
  Median time to progression: 155 days
[1]; fasted (n=10)
  Cmax: 1470 (697) ng/mL
[1]; fasted
  AUC(0-24h): 5510 (1730) (n=9) ng·h/mL
  AUC(0-inf): 4480 (1850) (n=2) ng·h/mL
  AUC(0-t): 5310 (1780) (n=10) ng·h/mL
  Rac: 1.07 (0.03) (n=2)
  t1/2: 6.11 (0.74) (n=2) h
  tmax: 2.01 (0.97, 3.00) h
[1]; fed (n=11)
  Cmax: 863 (563) ng/mL
[1]; fed
  AUC(0-24h): 6150 (3280) ng·h/mL
  AUC(0-inf): 6600 (1430) (n=5) ng·h/mL
  AUC(0-t): 6150 (3270) ng·h/mL
  Rac: 1.08 (0.12) (n=5)
  t1/2: 5.64 (3.17) (n=5) h
  tmax: 4.05 (1.07, 8.18) h
[1]; 600-mg dose
  Increase in AUC (0–24 h or 0-t) with a high-fat meal: ~ 10% and 10%
  Reduction in Cmax with a high-fat meal: 60%
[2]; [5]
  AUC(0-inf): 634 (n = 1) ng·h/mL
  AUC(0–24): 714 (193) ng·h/mL
  Ae, amount of drug dose excreted in urine: 0.19 (0.00) (n = 2) mg
  CLR: 0.3 (0.01) (n = 2) L/h
  Cav,ss: 29.7 (8.03) ng/mL
  Cmax: 264 (227) ng/mL
  fe, fraction of dose excreted in urine: 0.39 (0.01) (n = 2) %
  t1/2: 9.04 (n = 1) h
  tmax: 1.00 (0.5, 2.00) h
[2]; 50 mg, day –2 single dose
  AUC(0-inf): 770 (n = 1) ng·h/mL
  AUC(0-t): 603 (213) ng·h/mL
  AUC(0–24): 768 (n = 1) ng·h/mL
  Ae, amount of drug dose excreted in urine: 0.11 (0.06) (n = 2) mg
  Cmax: 265 (99.8) ng/mL
  fe, fraction of dose excreted in urine: 0.22 (0.13) (n = 2) %
  t1/2: 3.42 (n = 1) h
  tmax: 2.00 (0.58, 2.03) h
[2]; [6]
  AUC(0-inf): 1150 (266) ng·h/mL
  AUC(0–24): 1100 (244) ng·h/mL
  Ae, amount of drug dose excreted in urine: 0.70 (n = 1) mg
  CLR: 0.5 (n = 1) L/h
  Cav,ss: 45.8 (10.2) ng/mL
  Cmax: 404 (175) ng/mL
  fe, fraction of dose excreted in urine: 0.70 (n = 1) %
  t1/2: 8.92 (2.50) h
  tmax: 3.00 (1.00, 4.00) h
[2]; 100 mg, day –2 single dose
  AUC(0-inf): 895 (99.8) ng·h/mL
  AUC(0-t): 879 (104) ng·h/mL
  AUC(0–24): 879 (104) ng·h/mL
  Ae, amount of drug dose excreted in urine: 0.47 (n = 1) mg
  CLR: 0.5 (n = 1) L/h
  Cmax: 284 (112) ng/mL
  fe, fraction of dose excreted in urine: 0.47 (n = 1) %
  t1/2: 6.35 (3.36) h
  tmax: 2.05 (1.08, 3.00) h
[2]; [7]
  AUC(0-inf): 2670 (1510) (n = 2) ng·h/mL
  AUC(0–24): 3690 (2230) ng·h/mL
  Ae, amount of drug dose excreted in urine: 1.11 (0.33) mg
  CLR: 0.5 (0.4) L/h
  Cav,ss: 154 (93.1) ng/mL
  Cmax: 1430 (1080) ng/mL
  fe, fraction of dose excreted in urine: 0.55 (0.17) %
  t1/2: 9.19 (4.83) (n = 2) h
  tmax: 1.00 (1.00, 2.00) h
